Literature values in patent publication US20040176366A1, “Method of preventing or treating atherosclerosis or restenosis” (priority 2002, published 2004).

System: CMV
Conditions: rats, prophylaxis

For `Nc1nc(O)c2ncn(COC(CO)CO)c2n1` [Ganciclovir], the “prevention of atherosclerosis resulting from CMV infection” value is listed as “prevent atherosclerosis resulting from CMV infection of rats”.
